This data set relates to CCRIS mutagenicity, Ames/micronucleus/aberration tests. The experiment in a line: CCRIS mutagenicity studies.
Setting [1] is: Test System: AMES SALMONELLA TYPHIMURIUM, Strain/Indicator: TA102, Metabolic Activation: NONE, Method: STANDARD PLATE.

Activity calls are given as the source filed them. How the calls were made is not given here.

For the molecule `Cc1nc2ccccc2s1`, the mutagenic call (Test System: AMES SALMONELLA TYPHIMURIUM, Strain/Indicator: TA98, Metabolic Activation: HAMSTER, LIVER, S-9, AROCLOR 1254, Method: STANDARD PLATE) was “inactive; negative”; the mutagenic call (Test System: AMES SALMONELLA TYPHIMURIUM, Strain/Indicator: TA98, Metabolic Activation: NONE, Method: STANDARD PLATE) is “inactive; negative”; the mutagenic call (Test System: AMES SALMONELLA TYPHIMURIUM, Strain/Indicator: TA98, Metabolic Activation: RAT, LIVER, S-9, AROCLOR 1254, Method: STANDARD PLATE) is “inactive; negative”; the mutagenic call (Test System: AMES SALMONELLA TYPHIMURIUM, Strain/Indicator: TA100, Metabolic Activation: HAMSTER, LIVER, S-9, AROCLOR 1254, Method: STANDARD PLATE) was “inactive; negative”; the mutagenic call (Test System: AMES SALMONELLA TYPHIMURIUM, Strain/Indicator: TA100, Metabolic Activation: NONE, Method: STANDARD PLATE) was “inactive; negative”; the mutagenic call (Test System: AMES SALMONELLA TYPHIMURIUM, Strain/Indicator: TA100, Metabolic Activation: RAT, LIVER, S-9, AROCLOR 1254, Method: STANDARD PLATE) is “inactive; negative”. Also, the mutagenic call runs as follows: (Test System: AMES SALMONELLA TYPHIMURIUM, Strain/Indicator: TA102, Metabolic Activation: HAMSTER, LIVER, S-9, AROCLOR 1254, Method: STANDARD PLATE) “inactive; negative”; under setting [1], “inactive; negative”; (Test System: AMES SALMONELLA TYPHIMURIUM, Strain/Indicator: TA102, Metabolic Activation: RAT, LIVER, S-9, AROCLOR 1254, Method: STANDARD PLATE) “inactive; negative”; (Test System: AMES SALMONELLA TYPHIMURIUM, Strain/Indicator: TA1535, Metabolic Activation: HAMSTER, LIVER, S-9, AROCLOR 1254, Method: STANDARD PLATE) “inactive; negative”; (Test System: AMES SALMONELLA TYPHIMURIUM, Strain/Indicator: TA1535, Metabolic Activation: NONE, Method: STANDARD PLATE) “inactive; negative”; (Test System: AMES SALMONELLA TYPHIMURIUM, Strain/Indicator: TA1535, Metabolic Activation: RAT, LIVER, S-9, AROCLOR 1254, Method: STANDARD PLATE) “inactive; negative”. Moreover, the mutagenic call (Test System: AMES SALMONELLA TYPHIMURIUM, Strain/Indicator: TA1537, Metabolic Activation: HAMSTER, LIVER, S-9, AROCLOR 1254, Method: STANDARD PLATE) was “inactive; negative”; the mutagenic call (Test System: AMES SALMONELLA TYPHIMURIUM, Strain/Indicator: TA1537, Metabolic Activation: NONE, Method: STANDARD PLATE) was “inactive; negative”; the mutagenic call (Test System: AMES SALMONELLA TYPHIMURIUM, Strain/Indicator: TA1537, Metabolic Activation: RAT, LIVER, S-9, AROCLOR 1254, Method: STANDARD PLATE) was “inactive; negative”; the mutagenic call (Test System: Mouse lymphoma, Strain/Indicator: L5178Y (tk+/tk-), Metabolic Activation: None, Method: Suspension/plate) is “active; positive”; the mutagenic call (Test System: Mouse lymphoma, Strain/Indicator: L5178Y (tk+/tk-), Metabolic Activation: Rat, Liver, S-9, Aroclor 1254, Method: Suspension/plate) is “inactive; negative”.

With `CCCCNC(=O)c1cc(N)ccc1Oc1ccccc1`, the mutagenic call by setting is: (Test System: Ames Salmonella typhimurium, Strain/Indicator: TA98, Metabolic Activation: None, Method: Preincubation) “inactive; negative. data for this compound, pa10, mentioned in abstract only”; (Test System: Ames Salmonella typhimurium, Strain/Indicator: TA98, Metabolic Activation: Rat, Liver, S-9, Phenobarbital and beta-naphthoflavone, Method: Preincubation) “inactive; negative. this compound, pa10, converted by s-9 to a hydroxy derivative”; (Test System: Ames Salmonella typhimurium, Strain/Indicator: TA100, Metabolic Activation: None, Method: Preincubation) “inactive; negative. data for this compound, pa10, mentioned in abstract only”; (Test System: Ames Salmonella typhimurium, Strain/Indicator: TA100, Metabolic Activation: Rat, Liver, S-9, Phenobarbital and beta-naphthoflavone, Method: Preincubation) “inactive; negative. this compound, pa10, converted by s-9 to a hydroxy derivative”; (Test System: Ames Salmonella typhimurium, Strain/Indicator: TA102, Metabolic Activation: None, Method: Preincubation) “inactive; negative. data for this compound, pa10, mentioned in abstract only”; (Test System: Ames Salmonella typhimurium, Strain/Indicator: TA1535, Metabolic Activation: None, Method: Preincubation) “inactive; negative. data for this compound, pa10, mentioned in abstract only”. Moreover, the mutagenic call (Test System: Ames Salmonella typhimurium, Strain/Indicator: TA1537, Metabolic Activation: None, Method: Preincubation) is “inactive; negative. data for this compound, pa10, mentioned in abstract only”.

Regarding `Oc1ccc(Cl)c(Cl)c1`, the mutagenic call (Test System: AMES SALMONELLA TYPHIMURIUM, Strain/Indicator: TA98, Metabolic Activation: HAMSTER, LIVER, S-9, AROCLOR 1254, Method: PREINCUBATION) was “inactive; negative”; the mutagenic call (Test System: AMES SALMONELLA TYPHIMURIUM, Strain/Indicator: TA98, Metabolic Activation: NONE, Method: PREINCUBATION) is “inactive; negative”; the mutagenic call (Test System: AMES SALMONELLA TYPHIMURIUM, Strain/Indicator: TA98, Metabolic Activation: RAT, LIVER, S-9, AROCLOR 1254, Method: PREINCUBATION) was “inactive; negative”; the mutagenic call (Test System: AMES SALMONELLA TYPHIMURIUM, Strain/Indicator: TA100, Metabolic Activation: HAMSTER, LIVER, S-9, AROCLOR 1254, Method: PREINCUBATION) is “inactive; negative”; the mutagenic call (Test System: AMES SALMONELLA TYPHIMURIUM, Strain/Indicator: TA100, Metabolic Activation: NONE, Method: PREINCUBATION) was “inactive; negative”; the mutagenic call (Test System: AMES SALMONELLA TYPHIMURIUM, Strain/Indicator: TA100, Metabolic Activation: RAT, LIVER, S-9, AROCLOR 1254, Method: PREINCUBATION) was “inactive; negative”. Moreover, the mutagenic call is “inactive; negative” (Test System: AMES SALMONELLA TYPHIMURIUM, Strain/Indicator: TA1535, Metabolic Activation: HAMSTER, LIVER, S-9, AROCLOR 1254, Method: PREINCUBATION); “inactive; negative” (Test System: AMES SALMONELLA TYPHIMURIUM, Strain/Indicator: TA1535, Metabolic Activation: NONE, Method: PREINCUBATION); “inactive; negative” (Test System: AMES SALMONELLA TYPHIMURIUM, Strain/Indicator: TA1535, Metabolic Activation: RAT, LIVER, S-9, AROCLOR 1254, Method: PREINCUBATION); “inactive; negative” (Test System: AMES SALMONELLA TYPHIMURIUM, Strain/Indicator: TA1537, Metabolic Activation: HAMSTER, LIVER, S-9, AROCLOR 1254, Method: PREINCUBATION); “inactive; negative” (Test System: AMES SALMONELLA TYPHIMURIUM, Strain/Indicator: TA1537, Metabolic Activation: NONE, Method: PREINCUBATION); “inactive; negative” (Test System: AMES SALMONELLA TYPHIMURIUM, Strain/Indicator: TA1537, Metabolic Activation: RAT, LIVER, S-9, AROCLOR 1254, Method: PREINCUBATION).

As to `OCCN1CCN(CCCN2c3ccccc3Sc3ccc(C(F)(F)F)cc32)CC1`, the mutagenic call was “inactive; negative” (Test System: AMES SALMONELLA TYPHIMURIUM, Strain/Indicator: TA98, Metabolic Activation: NONE); “inactive; negative” (Test System: AMES SALMONELLA TYPHIMURIUM, Strain/Indicator: TA98, Metabolic Activation: RAT, LIVER, S-9, PHENOBARBITAL AND 5,6-BENZOFLAVONE); “inactive; negative” (Test System: AMES SALMONELLA TYPHIMURIUM, Strain/Indicator: TA100, Metabolic Activation: NONE); “inactive; negative” (Test System: AMES SALMONELLA TYPHIMURIUM, Strain/Indicator: TA100, Metabolic Activation: RAT, LIVER, S-9, PHENOBARBITAL AND 5,6-BENZOFLAVONE); “inactive; negative” (Test System: AMES SALMONELLA TYPHIMURIUM, Strain/Indicator: TA1535, Metabolic Activation: NONE); “inactive; negative” (Test System: AMES SALMONELLA TYPHIMURIUM, Strain/Indicator: TA1535, Metabolic Activation: RAT, LIVER, S-9, PHENOBARBITAL AND 5,6-BENZOFLAVONE). Further, the mutagenic call was “inactive; negative” (Test System: AMES SALMONELLA TYPHIMURIUM, Strain/Indicator: TA1537, Metabolic Activation: NONE); “inactive; negative” (Test System: AMES SALMONELLA TYPHIMURIUM, Strain/Indicator: TA1537, Metabolic Activation: RAT, LIVER, S-9, PHENOBARBITAL AND 5,6-BENZOFLAVONE); “inactive; negative” (Test System: E. COLI, Strain/Indicator: WP2 UVRA, Metabolic Activation: NONE); “inactive; negative” (Test System: E. COLI, Strain/Indicator: WP2 UVRA, Metabolic Activation: RAT, LIVER, S-9, PHENOBARBITAL AND 5,6-BENZOFLAVONE).

For `CCn1cc(C(=O)O)c(=O)c2cc(F)c(N3CCN(C)CC3)cc21`, the mutagenic call runs as follows: under setting [1], “active; positive”; (Test System: CHINESE HAMSTER V-79, Strain/Indicator: V-79 (HPRT)/6-THIOGUANINE, Metabolic Activation: NONE) “inactive; negative”.

Values taken from PubChem BioAssay AID1259407 (Chemical Carcinogenesis Research Information System (CCRIS), 2018).
